Measured values: patent US7750003B2, “Compounds-943” (AstraZeneca AB, priority 2006, dated 2010)

Test system: phosphorylation of Serine 473 in Akt in MDA-MB-468 human breast adenocarcinoma cells
Assay: In vitro phospho-Ser473 Akt assay (Test (c))
Assay type: cell-based
Conditions: Homo sapiens, MDA-MB-468, 2 h, MDA-MB-468 cells, 2 hours incubation; read-out: Test (c): IC50 versus Serine 473 in Akt
Protocol: (c) In Vitro Phospho-Ser473 Akt Assay
This assay determines the ability of test compounds to inhibit phosphorylation of Serine 473 in Akt as assessed using Acumen Explorer technology (Acumen Bioscience Limited), a plate reader that can be used to rapidly quantitate features of images generated by laser-scanning.
A MDA-MB-468 human breast adenocarcinoma cell line (LGC Promochem, Teddington, Middlesex, UK, Catalogue No. HTB-132) was routinely maintained at 37° C. with 5% CO2 up to a confluency of 70-90% in DMEM containing 10% heat-inactivated FCS and 1% L-glutamine.
For the assay, the cells were detached from the culture flask using ‘Accutase’ (Innovative Cell Technologies Inc., San Diego, Calif., USA; Catalogue No. AT104) using standard tissue culture methods and resuspended in media to give 1.7×10^5 cells per mL. Aliquots (90 μl) were seeded into each of the inner 60 wells of a black Packard 96 well plate (PerkinElmer, Boston, Mass., USA; Catalogue No. 6005182) to give a density of 15000 cells per well. Aliquots (90 μl) of culture media were placed in the outer wells to prevent edge effects. The cells were incubated overnight at 37° C. with 5% CO2 to allow them to adhere.
On day 2, the cells were treated with test compounds and incubated for 2 hours at 37° C. with 5% CO2. Test compounds were prepared as 10 mM stock solutions in DMSO and serially diluted as required with growth media to give a range of concentrations that were 10-fold the required final test concentrations. Aliquots (10 μl) of each compound dilution were placed in a well (in triplicate) to give the final required concentrations. As a minimum response control, each plate contained wells having a final concentration of 100 μM LY294002 (Calbiochem, Beeston, UK, Catalogue No. 440202). As a maximum response control, wells contained 1% DMSO instead of test compound. Following incubation, the contents of the plates were fixed by treatment with a 1.6% aqueous formaldehyde solution (Sigma, Poole, Dorset, UK, Catalogue No. F1635) at room temperature for 1 hour.
All subsequent aspiration and wash steps were carried out using a Tecan 96 well plate washer (aspiration speed 10 mm/sec). The fixing solution was removed and the contents of the plates were washed with phosphate-buffered saline (PBS; 50 μl; Gibco, Catalogue No. 10010015). The contents of the plates were treated for 10 minutes at room temperature with an aliquot (50 μl) of a cell permeabilisation buffer consisting of a mixture of PBS and 0.5% Tween-20. The ‘permeabilisation’ buffer was removed and non-specific binding sites were blocked by treatment for 1 hour at room temperature of an aliquot (50 μl) of a blocking buffer consisting of 5% dried skimmed milk [‘Marvel’ (registered trade mark); Premier Beverages, Stafford, GB] in a mixture of PBS and 0.05% Tween-20. The ‘blocking’ buffer was removed and the cells were incubated for 1 hour at room temperature with rabbit anti phospho-Akt (Ser473) antibody solution (50 μl per well; Cell Signalling, Hitchin, Herts, U.K., Catalogue No 9277) that had been diluted 1:500 in ‘blocking’ buffer. Cells were washed three times in a mixture of PBS and 0.05% Tween-20. Subsequently, cells were incubated for 1 hour at room temperature with Alexafluor488 labelled goat anti-rabbit IgG (50 μl per well; Molecular Probes, Invitrogen Limited, Paisley, UK, Catalogue No. A11008) that had been diluted 1:500 in ‘blocking’ buffer. Cells were washed 3 times with a mixture of PBS and 0.05% Tween-20. An aliquot of PBS (50 μl) was added to each well and the plates were sealed with black plate sealers and the fluorescence signal was detected and analysed.
Fluorescence dose response data obtained with each compound were analysed and the degree of inhibition of Serine 473 in Akt was expressed as an IC50 value.

Row | Compound | IC50 [nM]
1 | C[C@H]1COCCN1c1cc(CS(C)(=O)=O)nc(-c2ccc(NC(=O)Nc3cccc(=O)[nH]3)cc2)n1 [Example 22c, 1-[4-[4-[(3S)-3-methylmorpholin-4-yl]-6-(methylsulfonylmethyl)pyrimidin-2-yl]phenyl]-3-(6-oxo-1H-pyridin-2-yl)urea] | 210
2 | CCNC(=O)Nc1ncc(-c2nc(N3CCOC[C@@H]3C)cc(C(C)(C)S(C)(=O)=O)n2)cn1 [Example 24af, 1-ethyl-3-[5-[4-[(3S)-3-methylmorpholin-4-yl]-6-(2-methylsulfonylpropan-2-yl)pyrimidin-2-yl]pyrimidin-2-yl]urea] | 1400
3 | C[C@H]1COCCN1c1cc(C(C)(C)S(C)(=O)=O)nc(-c2cnc(NC(=O)NC3CC3)nc2)n1 [Example 24ag, 3-cyclopropyl-1-[5-[4-[(3S)-3-methylmorpholin-4-yl]-6-(2-methylsulfonylpropan-2-yl)pyrimidin-2-yl]pyrimidin-2-yl]urea] | 320
4 | CNC(=O)Nc1ccc(-c2nc(N3CCOC[C@@H]3C)cc(C(C)(C)S(C)(=O)=O)n2)cn1 [Example 24ah, 3-methyl-1-[5-[4-[(3S)-3-methylmorpholin-4-yl]-6-(2-methylsulfonylpropan-2-yl)pyrimidin-2-yl]pyridin-2-yl]urea] | 510
5 | CCNC(=O)Nc1ccc(-c2nc(N3CCOC[C@@H]3C)cc(C(C)(C)S(C)(=O)=O)n2)cn1 [Example 24ai, 1-ethyl-3-[5-[4-[(3S)-3-methylmorpholin-4-yl]-6-(2-methylsulfonylpropan-2-yl)pyrimidin-2-yl]pyridin-2-yl]urea] | 260
6 | C[C@H]1COCCN1c1cc(C(C)(C)S(C)(=O)=O)nc(-c2ccc(NC(=O)NC3CC3)nc2)n1 [Example 24aj, 3-cyclopropyl-1-[5-[4-[(3S)-3-methylmorpholin-4-yl]-6-(2-methylsulfonylpropan-2-yl)pyrimidin-2-yl]pyridin-2-yl]urea] | 450
7 | CCCNC(=O)Nc1ccc(-c2nc(N3CCOC[C@@H]3C)cc(C(C)(C)S(C)(=O)=O)n2)cc1 [Example 24ak, 3-[4-[4-[(3S)-3-methylmorpholin-4-yl]-6-(2-methylsulfonylpropan-2-yl)pyrimidin-2-yl]phenyl]-1-propyl-urea] | 210
8 | CC(C)NC(=O)Nc1ccc(-c2nc(N3CCOC[C@@H]3C)cc(C(C)(C)S(C)(=O)=O)n2)cc1 [Example 24al, 1-[4-[4-[(3S)-3-methylmorpholin-4-yl]-6-(2-methylsulfonylpropan-2-yl)pyrimidin-2-yl]phenyl]-3-propan-2-yl-urea] | 38
9 | C[C@H]1COCCN1c1cc(C(C)(C)S(C)(=O)=O)nc(-c2ccc(NC(=O)NC3CCC3)cc2)n1 [Example 24am, 3-cyclobutyl-1-[4-[4-[(3S)-3-methylmorpholin-4-yl]-6-(2-methylsulfonylpropan-2-yl)pyrimidin-2-yl]phenyl]urea] | 210
10 | C[C@H]1COCCN1c1cc(C(C)(C)S(C)(=O)=O)nc(-c2ccc(NC(=O)NC(C)(C)CO)cc2)n1 [Example 24an, 3-(1-hydroxy-2-methyl-propan-2-yl)-1-[4-[4-[(3S)-3-methylmorpholin-4-yl]-6-(2-methylsulfonylpropan-2-yl)pyrimidin-2-yl]phenyl]urea] | 1800
11 | C[C@H]1COCCN1c1cc(C(C)(C)S(C)(=O)=O)nc(-c2ccc(NC(=O)NCc3cccnc3)cc2)n1 [Example 24ao, 1-[4-[4-[(3S)-3-methylmorpholin-4-yl]-6-(2-methylsulfonylpropan-2-yl)pyrimidin-2-yl]phenyl]-3-(pyridin-3-ylmethyl)urea] | 240
12 | C[C@H](CO)NC(=O)Nc1ccc(-c2nc(N3CCOC[C@@H]3C)cc(C(C)(C)S(C)(=O)=O)n2)cc1 [Example 24ap, 3-[(2R)-1-hydroxypropan-2-yl]-1-[4-[4-[(3S)-3-methylmorpholin-4-yl]-6-(2-methylsulfonylpropan-2-yl)pyrimidin-2-yl]phenyl]urea] | 77

Continued, values first:

Row | IC50 [nM] | Compound
13 | 2000 | C[C@H]1COCCN1c1cc(C(C)(C)S(C)(=O)=O)nc(-c2ccc(NC(=O)NCC3CC3)cc2)n1 [Example 24aq, 3-(cyclopropylmethyl)-1-[4-[4-[(3S)-3-methylmorpholin-4-yl]-6-(2-methylsulfonylpropan-2-yl)pyrimidin-2-yl]phenyl]urea]
14 | 49 | C[C@H]1COCCN1c1cc(C(C)(C)S(C)(=O)=O)nc(-c2ccc(NC(=O)NCc3ccncc3)cc2)n1 [Example 24ar, 1-[4-[4-[(3S)-3-methylmorpholin-4-yl]-6-(2-methylsulfonylpropan-2-yl)pyrimidin-2-yl]phenyl]-3-(pyridin-4-ylmethyl)urea]
15 | 220 | C[C@H]1COCCN1c1cc(C(C)(C)S(C)(=O)=O)nc(-c2ccc(NC(=O)NCCCO)cc2)n1 [Example 24as, 3-(3-hydroxypropyl)-1-[4-[4-[(3S)-3-methylmorpholin-4-yl]-6-(2-methylsulfonylpropan-2-yl)pyrimidin-2-yl]phenyl]urea]
16 | 89 | CC(C)CNC(=O)Nc1ccc(-c2nc(N3CCOC[C@@H]3C)cc(C(C)(C)S(C)(=O)=O)n2)cc1 [Example 24at, 1-[4-[4-[(3S)-3-methylmorpholin-4-yl]-6-(2-methylsulfonylpropan-2-yl)pyrimidin-2-yl]phenyl]-3-(2-methylpropyl)urea]
17 | 2400 | C[C@H]1COCCN1c1cc(C(C)(C)S(C)(=O)=O)nc(-c2ccc(NC(=O)NCc3ncc[nH]3)cc2)n1 [Example 24au, 3-(1H-imidazol-2-ylmethyl)-1-[4-[4-[(3S)-3-methylmorpholin-4-yl]-6-(2-methylsulfonylpropan-2-yl)pyrimidin-2-yl]phenyl]urea]
18 | 4900 | C[C@H]1COCCN1c1cc(C(C)(C)S(C)(=O)=O)nc(-c2ccc(NC(=O)NCc3cnn(C)c3)cc2)n1 [Example 24av, 1-[4-[4-[(3S)-3-methylmorpholin-4-yl]-6-(2-methylsulfonylpropan-2-yl)pyrimidin-2-yl]phenyl]-3-[(1-methylpyrazol-4-yl)methyl]urea]
19 | 3400 | Cc1cc(CNC(=O)Nc2ccc(-c3nc(N4CCOC[C@@H]4C)cc(C(C)(C)S(C)(=O)=O)n3)cc2)no1 [Example 24aw, 3-[4-[4-[(3S)-3-methylmorpholin-4-yl]-6-(2-methylsulfonylpropan-2-yl)pyrimidin-2-yl]phenyl]-1-[(5-methyl-1,2-oxazol-3-yl)methyl]urea]
20 | 640 | CC(NC(=O)Nc1ccc(-c2nc(N3CCOC[C@@H]3C)cc(C(C)(C)S(C)(=O)=O)n2)cc1)c1cccnc1 (stereo partly drawn) [Example 24ax, 1-[4-[4-[(3S)-3-methylmorpholin-4-yl]-6-(2-methylsulfonylpropan-2-yl)pyrimidin-2-yl]phenyl]-3-(1-pyridin-3-ylethyl)urea]
21 | 7900 | C[C@H]1COCCN1c1cc(C(C)(C)S(C)(=O)=O)nc(-c2ccc(NC(=O)NCc3cc[nH]n3)cc2)n1 [Example 24ay, 1-[4-[4-[(3S)-3-methylmorpholin-4-yl]-6-(2-methylsulfonylpropan-2-yl)pyrimidin-2-yl]phenyl]-3-(1H-pyrazol-3-ylmethyl)urea]
22 | 5600 | C[C@H]1COCCN1c1cc(C(C)(C)S(C)(=O)=O)nc(-c2ccc(NC(=O)NCc3ccn(C)n3)cc2)n1 [Example 24az, 1-[4-[4-[(3S)-3-methylmorpholin-4-yl]-6-(2-methylsulfonylpropan-2-yl)pyrimidin-2-yl]phenyl]-3-[(1-methylpyrazol-3-yl)methyl]urea]

Same assay, conditions: MDA-MB-468 cells, 2 hours incubation; read-out: Test (c): IC50 versus Serine 473 in Akt

Row | IC50 [nM] | Compound
23 | 160 | 1-[4-[4-[(3S)-3-methylmorpholin- 4-yl]-6-(2-propan-2- yl]phenyl]-3-pyridin-2-yl-urea [Example 60u]
